From PubChem BioAssay AID330 (DTP/NCI, 2004)
Values joined by “and” are separate entries in the source; they are usually repeats but may differ in a detail not shown here. Equal entries are not always repeated. Inconclusive results and toxic doses are left out.

System: P388 leukemia ip, CD2F1 mice, survival T/C
Assay: NCI In Vivo Anticancer Drug Screen. Data for tumor model P388 Leukemia (intraperitoneal) in CD2F1 (CDF1) mice
Details: endpoint: median survival time, higher = longer survival
Method in brief: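 Mice carrying the transplanted tumor received test compound or vehicle. Survival was recorded in each group, and the value is the treated-group measurement divided by that of the vehicle-treated control group.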

[1] = dose: 25.0 mg/kg/injection, schedule: Q01DX009 (ip), vehicle: water
[2] = dose: 100.0 mg/kg/injection, schedule: Q01DX009 (ip), vehicle: saline with Tween-80
[3] = dose: 200.0 mg/kg/injection, schedule: Q01DX009 (ip), vehicle: saline with Tween-80
[4] = dose: 50.0 mg/kg/injection, schedule: Q01DX009 (ip), vehicle: saline with Tween-80
[5] = dose: 50.0 mg/kg/injection, schedule: Q01DX005 (ip), vehicle: Klucel (hydroxypropylcellulose) (HPC)
[6] = dose: 100.0 mg/kg/injection, schedule: Q01DX005 (ip), vehicle: Klucel (hydroxypropylcellulose) (HPC)
[7] = dose: 60.0 mg/kg/injection, schedule: Q01DX005 (ip), vehicle: Klucel (hydroxypropylcellulose) (HPC)
[8] = dose: 60.0 mg/kg/injection, schedule: Q01DX005 (ip), vehicle: saline with Tween-80
[9] = dose: 120.0 mg/kg/injection, schedule: Q01DX005 (ip), vehicle: saline with Tween-80
[10] = dose: 25.0 mg/kg/injection, schedule: Q01DX009 (ip), vehicle: Klucel (hydroxypropylcellulose) (HPC)
[11] = dose: 50.0 mg/kg/injection, schedule: Q01DX009 (ip), vehicle: Klucel (hydroxypropylcellulose) (HPC)
[12] = dose: 12.5 mg/kg/injection, schedule: Q01DX009 (ip), vehicle: Klucel (hydroxypropylcellulose) (HPC)

O=C(CNC(=O)c1ccc(Cl)cc1)c1ccc(Br)cc1
T/C (dose: 12.5 mg/kg/injection, schedule: Q01DX005 (ip), vehicle: saline with Tween-80): 94 % of control | T/C (dose: 25.0 mg/kg/injection, schedule: Q01DX005 (ip), vehicle: saline with Tween-80): 92 % of control | T/C (dose: 50.0 mg/kg/injection, schedule: Q01DX005 (ip), vehicle: saline with Tween-80): 92 % of control

Cc1nn2c(-c3snnc3C)nnc2s1
T/C (dose: 100.0 mg/kg/injection, schedule: Q01DX001 (ip), vehicle: Klucel (hydroxypropylcellulose) (HPC)): 99 % of control | T/C (dose: 200.0 mg/kg/injection, schedule: Q01DX001 (ip), vehicle: Klucel (hydroxypropylcellulose) (HPC)): 100 % of control | T/C (dose: 400.0 mg/kg/injection, schedule: Q01DX001 (ip), vehicle: Klucel (hydroxypropylcellulose) (HPC)): 100 % of control

COc1cccc2c1C(=O)c1c(O)c3c(c(O)c1C2=O)C[C@@](O)(/C(CO)=N/NC(=O)c1ccc(Cl)c(Cl)c1)C[C@@H]3OC1CC(NC(=S)Nc2ccc(F)cc2)C(O)C(C)O1 (stereo partly drawn)
T/C (dose: 0.1 mg/kg/injection, schedule: Q01DX009 (ip), vehicle: water): 99 % of control | T/C (dose: 0.2 mg/kg/injection, schedule: Q01DX009 (ip), vehicle: water): 113 % of control | T/C (dose: 0.4 mg/kg/injection, schedule: Q01DX009 (ip), vehicle: water): 109 % of control | T/C (dose: 0.8 mg/kg/injection, schedule: Q01DX009 (ip), vehicle: water): 111 % of control | T/C (dose: 12.5 mg/kg/injection, schedule: Q01DX009 (ip), vehicle: water): 94 % of control | T/C [1]: 91 % of control and 94 % of control | T/C (dose: 50.0 mg/kg/injection, schedule: Q01DX009 (ip), vehicle: water): 91 % of control | T/C (dose: 100.0 mg/kg/injection, schedule: Q01DX009 (ip), vehicle: water): 92 % of control

CC(=Nc1ccccc1)c1ccc2ccccc2c1
T/C [2]: 95 % of control | T/C [3]: 90 % of control | T/C (dose: 400.0 mg/kg/injection, schedule: Q01DX009 (ip), vehicle: saline with Tween-80): 90 % of control

O=S1(=O)CC(c2ccccc2)(N2CCOCC2)C1
T/C [4]: 94 % of control | T/C [2]: 96 % of control | T/C [3]: 105 % of control

O=C(O)C(CCCCNC(=S)S)NC(=S)S.[Zn+2] (stereo not drawn)
T/C [5]: 95 % of control | T/C [6]: 95 % of control

O=C1C=CC(=O)c2c(O)ccc(O)c21
T/C (dose: 0.2 mg/kg/injection, schedule: Q01DX005 (ip), vehicle: saline with Tween-80): 102 % of control | T/C (dose: 0.4 mg/kg/injection, schedule: Q01DX005 (ip), vehicle: saline with Tween-80): 97 % of control | T/C (dose: 0.8 mg/kg/injection, schedule: Q01DX005 (ip), vehicle: saline with Tween-80): 98 % of control | T/C (dose: 1.0 mg/kg/injection, schedule: Q04DX003 (ip), vehicle: saline with Tween-80): 100 % of control | T/C (dose: 2.0 mg/kg/injection, schedule: Q04DX003 (ip), vehicle: saline with Tween-80): 104 % of control | T/C (dose: 4.0 mg/kg/injection, schedule: Q04DX003 (ip), vehicle: saline with Tween-80): 100 % of control

Fc1cccc(Cl)c1C(Nc1nccs1)Nc1nccs1
T/C [7]: 107 % of control | T/C (dose: 120.0 mg/kg/injection, schedule: Q01DX005 (ip), vehicle: Klucel (hydroxypropylcellulose) (HPC)): 103 % of control | T/C (dose: 240.0 mg/kg/injection, schedule: Q01DX005 (ip), vehicle: Klucel (hydroxypropylcellulose) (HPC)): 104 % of control

C#CC(CC)(CC)N=Cc1cc(Cl)cc(Cl)c1O
T/C [4]: 98 % of control | T/C [2]: 94 % of control | T/C [3]: 96 % of control

CC(=O)SSC12CC3CC(CC(C3)C1)C2
T/C (dose: 30.0 mg/kg/injection, schedule: Q01DX005 (ip), vehicle: saline with Tween-80): 100 % of control | T/C [8]: 100 % of control and 101 % of control | T/C [9]: 100 % of control and 104 % of control

CCCCCCCCCCCCCCCCS(=O)(=O)N/N=C(/c1ccccc1Cl)N1CCOCC1
T/C [4]: 92 % of control | T/C [2]: 93 % of control | T/C [3]: 94 % of control

COc1c(O)cc2oc(-c3ccccc3)c(O)c(=O)c2c1OC
T/C (dose: 25.0 mg/kg/injection, schedule: Q01DX005 (ip), vehicle: Klucel + Tween-80): 89 % of control | T/C (dose: 50.0 mg/kg/injection, schedule: Q01DX005 (ip), vehicle: Klucel + Tween-80): 95 % of control | T/C (dose: 100.0 mg/kg/injection, schedule: Q01DX005 (ip), vehicle: Klucel + Tween-80): 98 % of control | T/C (dose: 200.0 mg/kg/injection, schedule: Q01DX005 (ip), vehicle: Klucel + Tween-80): 95 % of control

C/C=c1/[nH]c(=O)/c(=C\c2ccccc2)[nH]c1=O
T/C [10]: 89 % of control | T/C [11]: 91 % of control | T/C (dose: 100.0 mg/kg/injection, schedule: Q01DX009 (ip), vehicle: Klucel (hydroxypropylcellulose) (HPC)): 89 % of control

CCOC(=O)NC(=S)c1ccc[nH]1
T/C [12]: 95 % of control | T/C [10]: 87 % of control | T/C [11]: 95 % of control and 98 % of control

N#CC(Br)CNC(=O)Oc1ccccc1 (stereo not drawn)
T/C [5]: 104 % of control | T/C [6]: 106 % of control | T/C (dose: 200.0 mg/kg/injection, schedule: Q01DX005 (ip), vehicle: Klucel (hydroxypropylcellulose) (HPC)): 105 % of control

CC1=C(C(=O)Nc2ccccc2Cl)C(c2cccc([N+](=O)[O-])c2)C(C(=O)Nc2ccccc2Cl)=C(C)N1
T/C (dose: 15.0 mg/kg/injection, schedule: Q01DX005 (ip), vehicle: Klucel (hydroxypropylcellulose) (HPC)): 93 % of control | T/C (dose: 30.0 mg/kg/injection, schedule: Q01DX005 (ip), vehicle: Klucel (hydroxypropylcellulose) (HPC)): 90 % of control | T/C [7]: 88 % of control

CN1P(=N)(N)N=P(c2ccccc2)(c2ccccc2)N=P1(c1ccccc1)c1ccccc1 (stereo not drawn)
T/C [12]: 99 % of control and 113 % of control and 121 % of control | T/C [10]: 108 % of control and 115 % of control and 93 % of control | T/C [11]: 123 % of control and 88 % of control

COC(=O)c1ccc(C(=S)SC)cc1
T/C (dose: 100.0 mg/kg/injection, schedule: Q04DX002 (ip), vehicle: saline): 100 % of control | T/C (dose: 200.0 mg/kg/injection, schedule: Q04DX002 (ip), vehicle: saline): 100 % of control | T/C (dose: 400.0 mg/kg/injection, schedule: Q04DX002 (ip), vehicle: saline): 99 % of control

CN1C(C(=O)Nc2nccs2)=C(O)c2ccccc2S1(=O)=O
T/C [8]: 105 % of control | T/C [9]: 98 % of control

COc1cccc2c1C(=O)c1c(O)c3c(c(O)c1C2=O)C[C@@](O)(C(=O)CN1CCN(C)CC1)C[C@@H]3OC1CC(N)C(O)C(C)O1 (stereo partly drawn)
T/C (dose: 1.3 mg/kg/injection, schedule: Q01DX001 (ip), vehicle: water): 108 % of control | T/C (dose: 1.56 mg/kg/injection, schedule: Q01DX009 (ip), vehicle: water): 115 % of control | T/C (dose: 1.8 mg/kg/injection, schedule: Q01DX001 (ip), vehicle: water): 116 % of control | T/C (dose: 2.4 mg/kg/injection, schedule: Q01DX001 (ip), vehicle: water): 106 % of control | T/C (dose: 3.12 mg/kg/injection, schedule: Q01DX009 (ip), vehicle: water): 123 % of control | T/C (dose: 3.13 mg/kg/injection, schedule: Q01DX009 (ip), vehicle: water): 115 % of control | T/C (dose: 3.2 mg/kg/injection, schedule: Q01DX001 (ip), vehicle: water): 109 % of control | T/C (dose: 4.2 mg/kg/injection, schedule: Q01DX001 (ip), vehicle: water): 113 % of control | T/C (dose: 5.6 mg/kg/injection, schedule: Q01DX001 (ip), vehicle: water): 115 % of control | T/C (dose: 6.25 mg/kg/injection, schedule: Q01DX009 (ip), vehicle: water): 115 % of control | T/C (dose: 7.5 mg/kg/injection, schedule: Q01DX001 (ip), vehicle: water): 117 % of control | T/C (dose: 10.0 mg/kg/injection, schedule: Q01DX001 (ip), vehicle: water): 115 % of control | T/C (dose: 12.5 mg/kg/injection, schedule: Q01DX001 (ip), vehicle: water): 117 % of control | T/C (dose: 18.8 mg/kg/injection, schedule: Q01DX009 (ip), vehicle: water): 161 % of control | T/C (dose: 25.0 mg/kg/injection, schedule: Q01DX001 (ip), vehicle: water): 119 % of control | T/C [1]: 115 % of control and 117 % of control

Cc1cnc2c(c1)CCCC2C(N)=S (stereo not drawn)
T/C (dose: 50.0 mg/kg/injection, schedule: Q01DX009 (ip), vehicle: saline): 99 % of control | T/C (dose: 100.0 mg/kg/injection, schedule: Q01DX009 (ip), vehicle: saline): 95 % of control | T/C (dose: 200.0 mg/kg/injection, schedule: Q01DX009 (ip), vehicle: saline): 107 % of control
